SMILES strings stand for the structures.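 Each compound was tested at five concentrations against cells in 96-well plates for 48 hours. Abbreviation: GI50, concentration required for 50% inhibition of growth. TGI is the concentration that stops growth completely.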

Among the test systems are HS 578T breast; SK-MEL-2 melanoma; K-562 leukemia; HCC-2998 colon; HL-60(TB) leukemia; TK-10 renal; T-47D breast; UACC-257 melanoma.
What all share (test): NCI tumour cell line growth inhibition, 48 h

Regarding `CC(=O)Nc1ccc2c(c1)C(=O)c1cccc(F)c1-2`, the TGI in the test on HS 578T breast, with SK-MEL-2 melanoma, in the test on K-562 leukemia, in the test on HCC-2998 colon, in the test on HL-60(TB) leukemia and with TK-10 renal was over 100 µM each time. The TGI in the test with T-47D breast and in the test on UACC-257 melanoma was over 100 µM in each case. Further, the GI50 in the test with HCC-2998 colon was over 100 µM.
For `COc1ccc2c(c1)C(=O)/C(=C/c1ccc([N+](=O)[O-])s1)O2`, the GI50 is 0.269 µM with HS 578T breast; 0.325 µM in the test on SK-MEL-2 melanoma; 0.291 µM with K-562 leukemia; 0.514 µM in the test on HCC-2998 colon; 0.713 µM in the test with HL-60(TB) leukemia; 0.767 µM in the test with TK-10 renal. Also, the values for the GI50 with T-47D breast and in the test on UACC-257 melanoma were 0.248 µM and 0.819 µM, respectively. Further, the TGI is 0.875 µM in the test on SK-MEL-2 melanoma; 12.2 µM in the test with K-562 leukemia; 2.05 µM in the test on HCC-2998 colon; over 26.1 µM in the test on HL-60(TB) leukemia; 0.728 µM with T-47D breast; 3.11 µM in the test with UACC-257 melanoma.
`Cc1ccc(/C=C/C(=O)c2ccc(N)cc2)c(C)c1`: the GI50 was 18.2 µM in the test with HS 578T breast; 14 µM with SK-MEL-2 melanoma; 2.03 µM in the test with K-562 leukemia; 15.6 µM with HCC-2998 colon; 2.89 µM in the test with HL-60(TB) leukemia; 3.13 µM in the test on TK-10 renal. Further, the GI50 was 2.05 µM in the test on T-47D breast and 14.3 µM with UACC-257 melanoma. Also, the TGI with HS 578T breast amounted to 80 µM; with SK-MEL-2 melanoma, 28.4 µM; with K-562 leukemia it was 4.84 µM; in the test on HCC-2998 colon, 30.6 µM; with HL-60(TB) leukemia, 11.4 µM; in the test on TK-10 renal, 11.9 µM. Further, the TGI with T-47D breast is 4.64 µM; in the test with UACC-257 melanoma, 28.3 µM.
As for `CC(C)=CC(O)C/C(C)=C/CC/C(C)=C/CCC1(C)C(CCCO)/C(=C(/C)C=O)CCC1(C)O` (configuration not stated), the TGI was over 100 µM with HS 578T breast; over 100 µM in the test on SK-MEL-2 melanoma; 7.94 µM in the test with K-562 leukemia; 68.2 µM with HCC-2998 colon; 43.7 µM in the test on HL-60(TB) leukemia; over 100 µM in the test on TK-10 renal. Also, the TGI in the test with T-47D breast and with UACC-257 melanoma was over 100 µM in each case.
With `CCN(CC)CCCNc1nc2ccccc2c2c(=O)c3cc(Cl)ccc3sc12`, the GI50 in the test on HS 578T breast was 3.13 µM; in the test with SK-MEL-2 melanoma, 10.4 µM; in the test on K-562 leukemia, 2.29 µM; with HCC-2998 colon, 1.91 µM; with HL-60(TB) leukemia, 5.03 µM; in the test on TK-10 renal it was 2.15 µM. Further, the GI50 was 3.85 µM with T-47D breast and 5.43 µM with UACC-257 melanoma. Also, the TGI came to 14.8 µM in the test with HS 578T breast; 27.5 µM with SK-MEL-2 melanoma; 5.51 µM with K-562 leukemia; 4.01 µM with HCC-2998 colon; 23.2 µM in the test with HL-60(TB) leukemia; 3.97 µM with TK-10 renal. For the same compound, the TGI was determined as 27.7 µM with T-47D breast and 22.5 µM with UACC-257 melanoma.
As to `CNc1cccnc1/C=N/NC(N)=S`, the TGI was over 10 µM in the test on HS 578T breast; over 10 µM in the test with SK-MEL-2 melanoma; over 10 µM with K-562 leukemia; over 10 µM with HCC-2998 colon; over 6.25 µM in the test on HL-60(TB) leukemia; over 10 µM in the test on TK-10 renal. Moreover, the TGI in the test with T-47D breast and in the test on UACC-257 melanoma was over 10 µM throughout.
Turning to `COc1ccc(Cn2cnc3cc(C(=O)Nc4cccc5ccccc45)ccc32)c(OC)c1`, the GI50 with HS 578T breast was 0.0351 µM; with SK-MEL-2 melanoma, 0.945 µM; with K-562 leukemia, 0.0344 µM; with HCC-2998 colon, 0.197 µM; in the test on HL-60(TB) leukemia, 0.0319 µM; with TK-10 renal, 1.17 µM. Besides, the GI50 with T-47D breast is 0.0372 µM; with UACC-257 melanoma, 39 µM. Also, the TGI in the test with HS 578T breast was over 100 µM; with SK-MEL-2 melanoma, over 100 µM; in the test with K-562 leukemia it was over 100 µM; with HCC-2998 colon, 14.6 µM; in the test with HL-60(TB) leukemia, 0.145 µM; in the test with TK-10 renal, over 100 µM. Also, the TGI in the test with T-47D breast and with UACC-257 melanoma was over 100 µM each time.
For `O=C1/C(=C/c2ccc([N+](=O)[O-])o2)Oc2ccccc21`, the GI50 with HS 578T breast was 2.88 µM; with SK-MEL-2 melanoma, 1.91 µM; in the test on K-562 leukemia, 0.371 µM; in the test on HCC-2998 colon it was 1.98 µM; with HL-60(TB) leukemia it was 1.33 µM; in the test with TK-10 renal it was 1.59 µM. The GI50 in the test on T-47D breast was 1.24 µM; in the test on UACC-257 melanoma it was 1.68 µM. The TGI with HS 578T breast came out at 21.4 µM; in the test with SK-MEL-2 melanoma, 3.73 µM; in the test on K-562 leukemia, 1.97 µM; with HCC-2998 colon it was 3.94 µM; in the test with HL-60(TB) leukemia it was 3.89 µM; in the test on TK-10 renal it was 3.02 µM. Besides, the TGI in the test with T-47D breast was 4.34 µM; with UACC-257 melanoma, 3.5 µM.
Take `COc1cc(-n2cc(-c3ccc(F)cc3)[nH]c2=S)cc(OC)c1OC`: the GI50 in the test on HS 578T breast is 18.3 µM; with SK-MEL-2 melanoma, over 100 µM; with K-562 leukemia, over 100 µM; with HCC-2998 colon, over 100 µM; with HL-60(TB) leukemia, over 100 µM; in the test with TK-10 renal it was over 100 µM. Moreover, the figures for the GI50 in the test on T-47D breast and in the test with UACC-257 melanoma were 72.4 µM and over 100 µM, respectively. The TGI in the test with HS 578T breast, with SK-MEL-2 melanoma, in the test on K-562 leukemia, in the test on HCC-2998 colon, in the test on HL-60(TB) leukemia and in the test with TK-10 renal was over 100 µM in each case. The TGI in the test with T-47D breast and in the test with UACC-257 melanoma was over 100 µM throughout.
As to `CN(C)c1ccc(/C=C/c2ccnc3ccccc23)cc1N`, the TGI was 61.3 µM in the test on HS 578T breast; 21.3 µM in the test with SK-MEL-2 melanoma; 23.6 µM in the test on K-562 leukemia; 25.3 µM in the test on HCC-2998 colon; 13.9 µM with HL-60(TB) leukemia; 20.2 µM in the test with TK-10 renal. For the same compound, the values for the TGI with T-47D breast and in the test with UACC-257 melanoma were 5.36 µM and 7.75 µM, respectively.
Take `O=c1[nH]ccc2nc(-c3ccc(CN4CCC(c5nc(-c6ccccn6)n[nH]5)CC4)cc3)c(-c3ccccc3)cc12`: the GI50 in the test with HS 578T breast was 0.592 µM; in the test on SK-MEL-2 melanoma, 14.7 µM; in the test with K-562 leukemia, 18.9 µM; in the test with HCC-2998 colon, 22.2 µM; in the test on HL-60(TB) leukemia, 23.6 µM; in the test with TK-10 renal it was 3.37 µM. Also, the GI50 with UACC-257 melanoma is 14.8 µM. The TGI in the test with HS 578T breast is 16.5 µM; with SK-MEL-2 melanoma it was 38 µM; with K-562 leukemia, over 100 µM; in the test with HCC-2998 colon it was over 100 µM; with HL-60(TB) leukemia, over 86.7 µM; with TK-10 renal it was 30.4 µM. In addition, the TGI in the test with T-47D breast turned out to be 0.0729 µM; in the test on UACC-257 melanoma it was 51.3 µM.

The values are drawn from PubChem BioAssay (NCI).
